Source: US20160038439A1, “Use of 7-a-[9-(4,4,5,5,5-pentafluoropentylsulfinyl)nonyl]-estra-1,3,5(10)- triene-3,17B-diol and derivatives thereof” (XI'ANLIBANG PHARMACEUTICAL TECHNOLOGY CO., LTD., priority 2013, published 2016)
Marks after values point to notes of the source that are not given here.

Columns and labels:
[1] = test system: TNF-α; test: TNF-α level in serum of rats with arthritis (ELISA); format: in vivo, SD rats
Procedure: (§1) After inflamed model was successfully established in SD rats, the SD rats were randomly divided into model control group (12 rats), low, medium dose group (8 rats for each), and high dose group (12 rats) of test drug depending on body weight. Rats in the model control group were administered a blank fat emulsion injection (0.5 mL) by tail vein injection every other day for 7 days; rats in the low and medium dose group of test drug were administered a fat emulsion injection of a compound of Formula A (specifically including Compounds I-VI described hereafter) by tail vein injection every other day for 7 days; rats in the high dose group of test drug were administered a fat emulsion injection of a compound of Formula A by tail vein injection every other day for 14 days. 12 same models in the normal control group were also administered a blank fat emulsion injection. Indexes such as hindfoot joint score, hindfoot joint thickness measurement, TNF-α level in serum and hindfoot joint tissues, hindfoot joint pathological section and the like were used to evaluate efficacy of the drug.
(§2) Compound I used in the present invention was purchased from Xi′ an Libang Pharmaceutical Co., Ltd.; Compounds II-IV were synthesized by the following method. SD rats used in the present invention were purchased from Super-B&K Laboratory Animal Corp. Ltd.; chicken type II collagen was purchased from Sigma, Lot No. 87H5227; rat tumor necrosis factor-α [TNF-α] enzyme-linked immunoassay kit (ELISA) was purchased from Shanghai Biovol Biotech Co., Ltd., Lot No. BV-E12102201.
(§3) Chicken type II collagen was dissolved in 0.1 mol/L acetic acid at 4° C. while stirring so as to be thoroughly dissolved at a concentration of 2 mg/mL The resulting solution was put into a refrigerator at 4° C. overnight. Liquid paraffin and lanolin were mixed at a ratio of 2:1 (volume ratio), and the mixture was autoclaved to prepare an incomplete Freund's adjuvant (IFA). Bacillus Calmette Guerin (BCG) vaccine (60 mg) was inactivated at 80° C. for 1 hour and transferred to a mortar, into which was dropwise added IFA. After being uniformly grinded, the resulting mixture was pushed and sucked repeatedly by double-syringe to prepare a complete Freund's adjuvant (CFA), with the final concentration of BCG vaccine being 2 mg/mL. An equal amount of chicken type II collagen acid solution was mixed with CFA into a stable emulsion (containing 1 mg chicken type II collagen per milliliter).
(§4) 12 female SD rats were randomly selected from 192 female SD rats as normal control group. The remaining 180 rats was disinfected with iodine tincture. After being deiodinated with 75% ethanol, each of the rat was administered 150 μL collagen emulsion by intradermal injection at the base of the tail, and was administered 100 μL collagen emulsion by intradermal injection at the vola pedis of right hindfoot. Thus, totally 250 μL for each rat was administered. 7 days later, an equal amount of collagen emulsion was intraperitoneal injected as a secondary immune.
(§5) Animal grouping and administration: inflamed rats were divided into model control group, low, medium and high dose groups of test drug based on body weight.
(§6) Rats in each group were scored for the hindfoot joint and measured for the thickness of ankle joint before being inflamed. Normal rats were taken blood from orbital venous plexus. The serum of the blood was separated out and cryopreserved at −20° C. to detect cytokines. Rats were scored for joint after being inflamed for 3 days, and were measured for the thickness of ankle joint before administration (on the 19th day since being inflamed), on the 3rd day and 8th day after administration (on the […] since being inflamed). Rats in each group were taken blood from orbital venous plexus when inflammation was severe (on the 23rd day after being inflamed). The serum of the blood was separated out and cryopreserved at −20° C. […]

[2] = test system: TNF-α; test: TNF-α level in hindfoot ankle joint tissue of rats with arthritis; format: in vivo, SD rats
Procedure: as §1, §2, §3, §4, §5, §6

[3] = test system: chicken type II collagen-induced arthritis model in SD rats; test: Pathological examination score of hindfoot ankle joint of rats with arthritis; format: in vivo; conditions: high dose group (1.40-2.16 mg/kg per compound), every other day for 14 days, n=4
Procedure: as §1, §3
as §4, with “Thus, totally 250 μL for each rat was administered. 7 days later, an equal amount of collagen emulsion was intraperitoneal injected as a secondary immune.” left out
Rats in each group were scored for the hindfoot joint and measured for the thickness of ankle joint before being inflamed. […] Rats were scored for joint after being inflamed for 3 days, and were measured for the thickness of ankle joint before administration (on the 19th day since being inflamed), on the 3rd day and 8th day after administration (on the 20th day since being inflamed). […]

[4] = test system: chicken type II collagen-induced arthritis model in SD rats; test: Thickness of right hindfoot ankle joint by microcalliper, collagen-induced arthritis rats; format: in vivo
Procedure: as §1, §3, §4, §5
(§7) Rats in each group were scored for the hindfoot joint and measured for the thickness of ankle joint before being inflamed. Normal rats were taken blood from orbital venous plexus. The serum of the blood was separated out and cryopreserved at −20° C. to detect cytokines. Rats were scored for joint after being inflamed for 3 days, and were measured for the thickness of ankle joint before administration (on the 19th day since being inflamed), on the 3rd day and 8th day after administration (on the […] since being inflamed). Rats in each group were taken blood from orbital venous plexus when inflammation was severe (on the 23rd day after being inflamed). The serum of the blood was separated out and cryopreserved at −20° C. 8 rats for each group were sacrificed on the 28th day after being inflamed and were taken blood from intraperitoneal vein. The serum of the blood was separated out and was subjected to serological detection (TNF-α). The rest of rats were sacrificed on the 35th day after being inflamed, and histology index detection was carried out

[5] = test system: chicken type II collagen-induced arthritis model in SD rats; test: Hindfoot joint score in chicken type II collagen-induced arthritis model in SD rats; format: in vivo; parameters: scale not given here; conditions: tail vein, every other day
Procedure: as §1, §3, §4, §5, §7

[6] = high dose group, the 3rd day after administration
[7] = high dose group, the 8th day after administration
[8] = low dose group, the 3rd day after administration
[9] = low dose group, the 8th day after administration
[10] = medium dose group, the 3rd day after administration
[11] = medium dose group, the 8th day after administration
[12] = left ankle joint, high dose group
[13] = left ankle joint, low dose group
[14] = left ankle joint, medium dose group
[15] = right ankle joint, high dose group
[16] = right ankle joint, low dose group
[17] = right ankle joint, medium dose group
[18] = high dose group, before administration (baseline)
[19] = low dose group, before administration (baseline)
[20] = medium dose group, before administration (baseline)

Compound | TNF-α level in serum (mean ± SD) [1, 6] [pg/mL] | TNF-α level in serum (mean ± SD) [1, 7] [pg/mL] | TNF-α level in serum (mean ± SD) [1, 8] [pg/mL] | TNF-α level in serum (mean ± SD) [1, 9] [pg/mL] | TNF-α level in serum (mean ± SD) [1, 10] [pg/mL] | TNF-α level in serum (mean ± SD) [1, 11] [pg/mL] | TNF-α level in ankle (mean ± SD) [2, 12] [pg/mL] | TNF-α level in ankle (mean ± SD) [2, 13] [pg/mL] | TNF-α level in ankle (mean ± SD) [2, 14] [pg/mL] | TNF-α level in ankle (mean ± SD) [2, 15] [pg/mL] | TNF-α level in ankle (mean ± SD) [2, 16] [pg/mL] | TNF-α level in ankle (mean ± SD) [2, 17] [pg/mL] | Joint lesion score (mean ± SD) [3] | Mean value of hindfoot joint score [5, 18] | Mean value of hindfoot joint score [5, 6] | Mean value of hindfoot joint score [5, 7] | Mean value of hindfoot joint score [5, 19] | Mean value of hindfoot joint score [5, 8] | Mean value of hindfoot joint score [5, 9] | Mean value of hindfoot joint score [5, 20] | also measured
C[C@]12CC[C@@H]3c4ccc(O)cc4C[C@@H](CCCCCCCCC[S+]([O-])CCCC(F)(F)C(F)(F)F)[C@H]3[C@@H]1CC[C@@H]2O (stereo partly drawn) [Compound I, 7-α-[9-(4,4,5,5,5-pentafluoropentylsulfinyl)nonyl]-estra-1,3,5(10)-triene-3,17β-diol, reference compound] | 13.48 ± 25.05 | 18.45 ± 12.72 | 50.15 ± 60.06 | 52.78 ± 67.16 | 31.55 ± 54.58 | 22.41 ± 25.25 | 8.66 ± 4.33 | 10.16 ± 5.82 | 9.57 ± 5.10 | 8.98 ± 7.44 | 10.71 ± 4.61 | 9.63 ± 3.02 |  |  |  |  |  |  |  |  | 
7-α-[9-(4,4,5,5,5-pentafluoropentylsulfinyl)nonyl]-estra-1,3,5(10)-triene-3-hydroxyl-17-undecanoyl [Compound II] | 26.72 ± 35.26 | 25.65 ± 20.66 | 48.28 ± 94.84 | 201.35 ± 250.23 | 11.00 ± 9.39 | 75.12 ± 93.40 | 14.08 ± 4.09 | 13.79 ± 4.68 | 15.91 ± 5.84 | 15.11 ± 4.32 | 13.79 ± 3.26 | 12.13 ± 3.35 | 2.50 ± 2.65 | 4.7 | 5.3**^# | 4.9 | 4.9 | 4.8** | 5.6^# | 4.9 | Thickness of ankle joint (mean ± SD) [4, 18]: 6.31 ± 0.52 mm; Thickness of ankle joint (mean ± SD) [4, 6]: 6.29 ± 0.69 mm; Thickness of ankle joint (mean ± SD) [4, 7]: 5.83 ± 0.61 mm; Thickness of ankle joint (mean ± SD) [4, 19]: 6.39 ± 0.68 mm; Thickness of ankle joint (mean ± SD) [4, 8]: 6.05 ± 0.55 mm; Thickness of ankle joint (mean ± SD) [4, 9]: 5.98 ± 0.19 mm; Thickness of ankle joint (mean ± SD) [4, 20]: 5.99 ± 0.57 mm; Thickness of ankle joint (mean ± SD) [4, 10]: 6.31 ± 0.54 mm; Thickness of ankle joint (mean ± SD) [4, 11]: 6.31 ± 0.51 mm; Mean value of hindfoot joint score [5, 10]: 4.9**; Mean value of hindfoot joint score [5, 11]: 4.9
7-α-[9-(4,4,5,5,5-pentafluoropentylsulfinyl)nonyl]-estra-1,3,5(10)-triene-3-hydroxyl-17-docosanoyl [Compound III] | 16.53 ± 15.71 | 10.36 ± 7.08 | 81.94 ± 141.25 | 157.89 ± 248.01 | 12.31 ± 17.56 | 39.56 ± 29.29 | 11.05 ± 3.96 | 12.93 ± 4.15 | 13.62 ± 3.42 | 13.85 ± 3.38 | 14.13 ± 4.20 | 12.02 ± 5.91 | 1.50 ± 1.91 | 5.4 | 4.8**^# | 5.6 | 4.5 | 5.3**^## | 5 | 5 | Thickness of ankle joint (mean ± SD) [4, 18]: 6.59 ± 0.44 mm; Thickness of ankle joint (mean ± SD) [4, 6]: 6.55 ± 0.56 mm; Thickness of ankle joint (mean ± SD) [4, 7]: 6.31 ± 0.69 mm; Thickness of ankle joint (mean ± SD) [4, 19]: 5.94 ± 0.52 mm; Thickness of ankle joint (mean ± SD) [4, 8]: 6.22 ± 0.38 mm; Thickness of ankle joint (mean ± SD) [4, 9]: 6.06 ± 0.29 mm; Thickness of ankle joint (mean ± SD) [4, 20]: 6.33 ± 0.52 mm; Thickness of ankle joint (mean ± SD) [4, 10]: 6.45 ± 0.53 mm; Thickness of ankle joint (mean ± SD) [4, 11]: 6.36 ± 0.46 mm; Mean value of hindfoot joint score [5, 10]: 4.8**; Mean value of hindfoot joint score [5, 11]: 5.4
7-α-[9-(4,4,5,5,5-pentafluoropentylsulfinyl)nonyl]-estra-1,3,5(10)-triene-3-acetyl-17-(undec-2-enoyl) [Compound VI] | 28.27 ± 37.62 | 26.56 ± 18.06 | 47.22 ± 96.55 | 197.35 ± 231.02 | 13.08 ± 7.93 | 78.21 ± 88.90 | 12.05 ± 4.01 | 14.39 ± 3.52 | 13.98 ± 3.66 | 14.58 ± 2.79 | 15.31 ± 5.02 | 12.67 ± 5.23 | 1.88 ± 1.26 | 5.3 | 4.7**^# | 5.5 | 4.6 | 5.4**^## | 4.9 | 4.8 | Mean value of hindfoot joint score [5, 10]: 4.6**; Mean value of hindfoot joint score [5, 11]: 5.5
